Source: ChEMBL document CHEMBL3351410, “The discovery of avanafil for the treatment of erectile dysfunction: a novel pyrimidine-5-carboxamide derivative as a potent and highly selective phosphodiesterase 5 inhibitor” (Bioorg Med Chem Lett, 2014)

How the values were obtained:
Corpus cavernosum = test: Induction of relaxant effect in rabbit corpus cavernosum after 30 mins; assay type: functional, Oryctolagus cuniculus
Homo sapiens [1] = organism: Homo sapiens; test: Selectivity for PDE5 (unknown origin) over PDE6 (unknown origin)
Homo sapiens [2] = organism: Homo sapiens; test: Selectivity for PDE5 (unknown origin) over PDE1 (unknown origin)
Homo sapiens [3] = organism: Homo sapiens; test: Selectivity for PDE5 (unknown origin) over PDE2 (unknown origin)
Homo sapiens [4] = organism: Homo sapiens; test: Selectivity for PDE5 (unknown origin) over PDE3 (unknown origin)
Homo sapiens [5] = organism: Homo sapiens; test: Selectivity for PDE5 (unknown origin) over PDE4 (unknown origin)
Homo sapiens [6] = organism: Homo sapiens; test: Selectivity for PDE5 (unknown origin) over PDE7 (unknown origin)
Homo sapiens [7] = organism: Homo sapiens; test: Selectivity for PDE5 (unknown origin) over PDE8 (unknown origin)
Homo sapiens [8] = organism: Homo sapiens; test: Selectivity for PDE5 (unknown origin) over PDE9 (unknown origin)
Homo sapiens [9] = organism: Homo sapiens; test: Selectivity for PDE5 (unknown origin) over PDE11 (unknown origin)
Homo sapiens [10] = organism: Homo sapiens; test: Selectivity for PDE5 (unknown origin) over PDE10 (unknown origin)
[11] = Selectivity for dog lungs PDE5 over light-activated bovine retina PDE6
[12] = target: cGMP-specific 3',5'-cyclic phosphodiesterase (Canis lupus familiaris, UniProt O77746); test: Inhibition of dog lungs PDE5 using [3H]cGMP as substrate after 30 mins by scintillation counting analysis

Row | SMILES | Selectivity ratio [11] | IC50 [12] [nM] | other results
1 | COc1ccc(CNc2nc(N3CCC[C@H]3CO)ncc2C(=O)NCc2ncccn2)cc1Cl [AVANAFIL] | 4000 |  | EC30 (Corpus cavernosum): 2.1 nM; Selectivity ratio (Homo sapiens [1]): 121; Selectivity ratio (Homo sapiens [2]): > 1000; Selectivity ratio (Homo sapiens [3]): > 1000; Selectivity ratio (Homo sapiens [4]): > 1000; Selectivity ratio (Homo sapiens [5]): > 1000; Selectivity ratio (Homo sapiens [6]): > 1000; Selectivity ratio (Homo sapiens [7]): > 1000; Selectivity ratio (Homo sapiens [8]): > 1000; Selectivity ratio (Homo sapiens [9]): > 19200; Selectivity ratio (Homo sapiens [10]): > 1000
2 | COc1ccc(CNc2nc(OCc3ccccn3)ncc2C(=O)N(C)Cc2ccccn2)cc1Cl |  | 85 | 
3 | COc1ccc(CNc2nc(N3CCOC(CO)C3)ncc2C(=O)NCc2ccccn2)cc1Cl (configuration not stated) |  | 32 | 
4 | CCCc1nc(C)c2c(=O)nc(-c3cc(S(=O)(=O)N4CCN(CC)CC4)ccc3OCC)[nH]n12 |  |  | Selectivity ratio (Homo sapiens [1]): 21
5 | COc1ccc(CNc2nc(N(C)CCO)ncc2C(=O)NCc2ccccn2)cc1Cl |  | 32 | 
6 | COc1ccc(CNc2nc(N3CCC(O)CC3)ncc2C(=O)NCc2ccccn2)cc1Cl |  | 59 | 
7 | COc1ccc(CNc2nc(N3CCOC[C@H]3CO)ncc2C(=O)NCc2ncccn2)cc1Cl |  | > 100 | 
8 | COc1ccc(CNc2nc(OCc3ccccn3)ncc2C(=O)NCCCO)cc1Cl | 420 | 13 | 
9 | COc1ccc(CNc2nc(N3CCCC(CO)C3)ncc2C(=O)NCc2ncccn2)cc1Cl (configuration not stated) |  | 63 | 
10 | COc1ccc(CNc2nc(N3CCC[C@@H]3CO)ncc2C(=O)NCc2ncccn2)cc1Cl |  | 36 | 
11 | COCCCNC(=O)c1cnc(OCc2ccccn2)nc1NCc1ccc(OC)c(Cl)c1 | 240 | 15 | 
12 | COc1ccc(CNc2nc(N3CCCCC3CO)ncc2C(=O)NCc2ccccn2)cc1Cl (configuration not stated) |  | 54 | 
13 | COc1ccc(CNc2nc(N3CCC(CO)C3)ncc2C(=O)NCc2ncccn2)cc1Cl (configuration not stated) |  | 25 | 
14 | CN1CC(=O)N2[C@H](c3ccc4c(c3)OCO4)c3[nH]c4ccccc4c3C[C@@H]2C1=O |  |  | Selectivity ratio (Homo sapiens [1]): 550; Selectivity ratio (Homo sapiens [9]): 25
15 | CCCc1nn(C)c2c(=O)[nH]c(-c3cc(S(=O)(=O)N4CCN(C)CC4)ccc3OCC)nc12 |  |  | Selectivity ratio (Homo sapiens [1]): 16

Now from value to molecule, other results behind:

Row | Selectivity ratio [11] | IC50 [12] [nM] | SMILES | other results
16 | 1500 | 6.6 | COc1ccc(CNc2nc(N3CCC[C@H]3CO)ncc2C(=O)NCCCO)cc1Cl | EC30 (Corpus cavernosum): 4.9 nM
17 | 5600 | 1.8 | COc1ccc(CNc2nc(N3CCC[C@H]3CO)ncc2C(=O)N[C@H]2CC[C@H](O)CC2)cc1Cl | EC30 (Corpus cavernosum): >100 nM
18 | 2000 | 6.1 | COc1ccc(CNc2nc(N3CCC[C@H]3CO)ncc2C(=O)NCC2CN(C)CCO2)cc1Cl (some centres not stated) | EC30 (Corpus cavernosum): 2.7 nM
19 |  | 5.5 | CCOC(=O)c1cnc(OCc2ccccn2)nc1NCc1ccc(OC)c(Cl)c1 | EC30 (Corpus cavernosum): 37 nM
20 | 1000 | 2.1 | COc1ccc(CNc2nc(OCc3ccccn3)ncc2C(=O)OCc2ccccn2)cc1Cl | 
21 | 4300 | 1.2 | COc1ccc(CNc2nc(N3CCC[C@H]3CO)ncc2C(=O)NCc2ccccn2)cc1Cl | EC30 (Corpus cavernosum): 22 nM
22 | 480 | 12 | COc1ccc(CNc2nc(OCc3ccccn3)ncc2C(=O)NCCCCO)cc1Cl | 
23 | 510 | 3.5 | COc1ccc(CNc2nc(OCc3ccccn3)ncc2C(=O)N[C@H]2CC[C@H](O)CC2)cc1Cl | 
24 |  | 6.5 | COc1ccc(CNc2nc(N3Cc4ccccc4C[C@H]3CO)ncc2C(=O)NCc2ccccn2)cc1Cl | 
25 | 480 | 2.7 | COc1ccc(CNc2nc(OCc3ccccn3)ncc2C(=O)NCc2ccccn2)cc1Cl | 
26 | 630 | 5.6 | COc1ccc(CNc2nc(OCc3ccccn3)ncc2C(=O)NCCN2CCOCC2)cc1Cl | 
27 |  | 5.2 | COc1ccc(CN=c2[nH]c(N3CCC[C@H]3CO)ncc2C(=O)NCc2ncccn2)cc1Cl [AVANAFIL] | 
28 | 720 | 12 | COc1ccc(CNc2nc(OCc3ccccn3)ncc2C(=O)NCc2ncccn2)cc1Cl | 
29 | 640 | 4.2 | COc1ccc(CNc2nc(OCc3ccccn3)ncc2C(=O)OCc2ncccn2)cc1Cl | 
30 | 7700 | 0.9 | COc1ccc(CNc2nc(N3CCC[C@H]3CO)ncc2C(=O)N[C@H]2CC[C@H](OC)CC2)cc1Cl | EC30 (Corpus cavernosum): 6.8 nM
